Assay results from patent US6642398B2, “Mono-and disubstituted 3-propyl gamma-aminobutyric acids” (Warner-Lambert Company, priority 1999, dated 2003).
Structures can show the parent of a compound that is named as a salt. Where two headings read alike, the source gives them in different places.

Legend:
[1] = tested on: DBA/2 mice; assay: Anticonvulsant % Protect (DBA2 mouse model of anticonvulsant efficacy); assay type: in vivo; details: for responders at 30 mg/kg: Mus musculus
Protocol: All procedures were carried out in compliance with the NIH Guide for the Care and Use of Laboratory Animals under a protocol approved by the Parke-Davis Animal Use Committee. Male DBA/2 mice, 3 to 4 weeks old were obtained from Jackson Laboratories, Bar Harbour, Me. Immediately before anticonvulsant testing, mice were placed upon a wire mesh, 4 inches square, suspended from a steel rod. The square was slowly inverted through 180° and mice observed for 30 seconds. Any mouse falling from the wire mesh was scored as ataxic (Coughenour L. L., McLean J. R., Parker R. B., “A new device for the rapid measurement of impaired motor function in mice,” Pharm. Biochem. Behav., 1977;6(3):351-3). Mice were placed into an enclosed acrylic plastic chamber (21 cm height, approximately 30 cm diameter) with a high-frequency speaker (4 cm diameter) in the center of the top lid. An audio signal generator (Protek model B-810) was used to produce a continuous sinusoidal tone that was swept linearly in frequency between 8 kHz and 16 kHz once each 10 msec. The average sound pressure level (SPL) during stimulation was approximately 100 dB at the floor of the chamber. Mice were placed within the chamber and allowed to acclimatize for one minute. DBA/2 mice in the vehicle-treated group responded to the sound stimulus (applied until tonic extension occurred, or for a maximum of 60 sec) with a characteristic seizure sequence consisting of wild running followed by clonic seizures, and later by tonic extension, and finally by respiratory arrest and death in 80% or more of the mice. In vehicle-treated mice, the entire sequence of seizures to respiratory arrest lasts approximately 15 to 20 seconds. The incidence of all the seizure phases in the drug-treated and vehicle-treated mice was recorded, and the occurrence of tonic seizures were used for calculating anticonvulsant ED50 values by probit analysis (Litchfield J. T., Wilcoxon F. “A simplified method for evaluating dose-effect experiments,” J. Pharmacol., 1949;96:99-113). Mice were used only once for testing at each dose point. Groups of DBA/2 mice (n=5-10 per dose) were tested for sound-induced seizure responses 2 hours (previously determined time of peak effect) after given drug orally. All drugs in the present study were dissolved in distilled water and given by oral gavage in a volume of 10 mL/kg of body weight. Compounds that are insoluble will be suspended in 1% carboxymethocellulose. Doses are expressed as weight of the active drug moiety.

[2] = 30 mg/kg PO, 1 h, read-out: Anticonvulsant % Protect 1 h
[3] = 30 mg/kg PO, 2 h, read-out: Anticonvulsant % Protect 2 h

Structure (SMILES)	responders at 30 mg/kg [1, 2] [%]	responders at 30 mg/kg [1, 3] [%]	other results
CC[C@H](C)C[C@H](CN)CC(=O)O [(3S,5S)-3-Aminomethyl-5-methyl-heptanoic acid]	0	0	–
CCC(CC)CC(CN)CC(=O)O (stereo not drawn)	–	–	Anticonvulsant % Protect 2 hr ([1]; Table 1, 2 hr): 20%
CC(C)[C@@H](C)[C@@H](CN)CC(=O)O [(3S,4R)3-Aminomethyl 4,5-dimethyl-hexanoic acid]	20	20	–
CC(C)C[C@H](CN)CC(=O)O [Pregabalin, (S)-3-(Aminomethyl)-5-methylhexanoic acid, reference compound]	–	–	Anticonvulsant % Protect 2 h ([1]; 30 mg/kg PO, 2 h): 100%
CC(C)[C@H](C)[C@H](CN)CC(=O)O [(3R,4S)-3-Aminomethyl-4,5-dimethyl-hexanoic acid]	20	0	–
CCCC(C(C)C)C(CN)CC(=O)O (stereo not drawn) (as salt: HCl) [3-aminomethyl-4-isopropyl-heptanoic acid, 3-Aminomethyl-4-isopropyl-heptanoic acid]	–	–	melting point: 160 to 170 °C
CC[C@@H](C)C[C@H](CN)CC(=O)O [(3S,5R)-3-Aminomethyl-5-methyl-heptanoic acid]	80	–	–
CC(C)[C@@H](C)[C@H](CN)CC(=O)O [(3R,4R)-3-Aminomethyl-4,5-dimethyl-hexanoic acid]	100	100	–
